Measured values: patent publication US6432692B1, “Sensitive bioassay for detecting agonists of the aryl hydrocarbon receptor” (Wisconsin Alumni Research Foundation, priority 1999, dated 2002)

Experiments:
AHR = details: mouse hepatoma cells overexpressing ARA9; cited from earlier work
GR-LexA chimera = GR-LexA chimera β-galactosidase reporter dose-response in yeast strain L40; type: cell-based
Method: Pharmacology in yeast: AHR dose-response curves were performed in the S. cerevisiae strain L40 as described previously (Carver et al., 1994, supra). Two days after plasmid transformation, the colonies were replica plated on media with various concentrations of βNF spread on the surface. The replica plates were then incubated for two days at 30° C. For each dose of βNF, three colonies were suspended in 100 μl of Z-buffer (60 mM Na2HPO4, 40 mM NaH2PO4, 10 mM KCl, 1 MM MgSO4, 35 mM 2-mercaptoethanol) and cell density was estimated by reading the A600. Twenty microliters of the remaining cell suspension was added to 130 μl Z-buffer, 25 μl 0.1%SDS (w/v), 25 μl CHCl3 and disrupted at high speed for 10 sec. Thirty microliters of a 4 mg/ml ONPG solution was added and the mixture incubated for 2-5 min at 30° C. The reaction was stopped by adding 75 μl of 1M NaCO3, the cell debris removed by centrifugation and the A420 was determined. Beta-galactosidase units were determined using the following formula (A420/(A600 of 1/10 dilution of cells×volume of culture×time of incubation))×1,000. […]
Next, the specificity of ARA3 for the AHR signaling pathway in yeast was examined. […] In this system, GR is expressed as a LexA fusion protein in which the LexA binding domain replaces the GR DNA binding domain.

LexA-AHR chimera = biological target: T1, LexA-AHR chimera (Mus musculus, UniProt P30561); assay: LexA-AHR chimera / LexA-operator β-galactosidase reporter dose-response in yeast strain L40; type: cell-based
T1 construct: expressed in transfected cells; host or cells: Saccharomyces cerevisiae strain L40; the other entry of the earlier key: lexA (P0A7C2, LexA repressor)
T1 sequence (P30561 with tags, fused parts or gaps): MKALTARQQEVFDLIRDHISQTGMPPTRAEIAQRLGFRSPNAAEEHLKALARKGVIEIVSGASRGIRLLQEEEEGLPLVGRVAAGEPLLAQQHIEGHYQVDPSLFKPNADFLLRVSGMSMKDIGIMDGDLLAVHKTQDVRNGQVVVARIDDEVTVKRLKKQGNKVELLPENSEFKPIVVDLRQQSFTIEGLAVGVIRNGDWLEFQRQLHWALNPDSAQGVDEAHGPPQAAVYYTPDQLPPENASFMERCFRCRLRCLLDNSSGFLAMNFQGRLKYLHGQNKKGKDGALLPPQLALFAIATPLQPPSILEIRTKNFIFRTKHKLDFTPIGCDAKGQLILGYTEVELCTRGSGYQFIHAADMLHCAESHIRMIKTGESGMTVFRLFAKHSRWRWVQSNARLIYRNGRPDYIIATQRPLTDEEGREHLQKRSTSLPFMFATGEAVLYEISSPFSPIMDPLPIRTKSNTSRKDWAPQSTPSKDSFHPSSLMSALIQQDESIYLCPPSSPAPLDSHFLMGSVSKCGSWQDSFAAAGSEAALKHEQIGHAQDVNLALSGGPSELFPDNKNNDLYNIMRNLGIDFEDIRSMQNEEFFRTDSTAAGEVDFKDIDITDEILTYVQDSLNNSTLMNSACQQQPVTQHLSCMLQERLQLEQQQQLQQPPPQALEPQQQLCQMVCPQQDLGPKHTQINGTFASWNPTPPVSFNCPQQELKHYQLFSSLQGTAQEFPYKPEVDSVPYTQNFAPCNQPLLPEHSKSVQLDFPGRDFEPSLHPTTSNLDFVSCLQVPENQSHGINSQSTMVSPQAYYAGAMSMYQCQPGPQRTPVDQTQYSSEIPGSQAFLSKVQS
T1 sequence (P15108 whole entry partner): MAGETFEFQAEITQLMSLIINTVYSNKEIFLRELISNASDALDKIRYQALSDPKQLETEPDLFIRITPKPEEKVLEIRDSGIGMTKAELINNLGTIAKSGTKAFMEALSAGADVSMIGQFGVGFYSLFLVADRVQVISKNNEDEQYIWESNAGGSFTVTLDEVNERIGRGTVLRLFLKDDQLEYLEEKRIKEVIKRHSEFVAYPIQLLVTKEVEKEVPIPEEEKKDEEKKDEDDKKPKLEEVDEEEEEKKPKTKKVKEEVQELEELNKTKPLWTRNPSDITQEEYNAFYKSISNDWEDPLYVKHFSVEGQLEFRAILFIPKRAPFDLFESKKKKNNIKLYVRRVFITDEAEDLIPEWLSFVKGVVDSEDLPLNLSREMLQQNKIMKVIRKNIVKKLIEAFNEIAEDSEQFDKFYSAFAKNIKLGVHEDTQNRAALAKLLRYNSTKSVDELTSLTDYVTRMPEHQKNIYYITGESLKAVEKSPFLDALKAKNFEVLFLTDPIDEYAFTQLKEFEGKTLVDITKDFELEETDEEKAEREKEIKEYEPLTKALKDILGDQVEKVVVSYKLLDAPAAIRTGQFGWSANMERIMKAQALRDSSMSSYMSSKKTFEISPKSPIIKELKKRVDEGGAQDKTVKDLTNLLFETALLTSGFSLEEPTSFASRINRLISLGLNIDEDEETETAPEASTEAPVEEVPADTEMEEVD
Method: Pharmacology in yeast: AHR dose-response curves were performed in the S. cerevisiae strain L40 as described previously (Carver et al., 1994, supra). Two days after plasmid transformation, the colonies were replica plated on media with various concentrations of βNF spread on the surface. The replica plates were then incubated for two days at 30° C. For each dose of βNF, three colonies were suspended in 100 μl of Z-buffer (60 mM Na2HPO4, 40 mM NaH2PO4, 10 mM KCl, 1 MM MgSO4, 35 mM 2-mercaptoethanol) and cell density was estimated by reading the A600. Twenty microliters of the remaining cell suspension was added to 130 μl Z-buffer, 25 μl 0.1%SDS (w/v), 25 μl CHCl3 and disrupted at high speed for 10 sec. Thirty microliters of a 4 mg/ml ONPG solution was added and the mixture incubated for 2-5 min at 30° C. The reaction was stopped by adding 75 μl of 1M NaCO3, the cell debris removed by centrifugation and the A420 was determined. Beta-galactosidase units were determined using the following formula (A420/(A600 of 1/10 dilution of cells×volume of culture×time of incubation))×1,000. To examine expression levels of FKBP52 and ARA9 in yeast, we performed western blot analysis on cell extracts as described previously (Hogenesch et al., J. Biol. Chem. 272: 8581-8593, 1997).
ARA9 enhances ligand responsiveness of AHR: Given the sequence similarities between ARA9 and FKBP52, we asked if either protein could influence AHR signaling in vivo. To this end, we employed a LexA-AHR chimera and a LexA-operator-driven β-galactosidase reporter gene in the yeast S. cerevisiae (Carver et al., 1994, supra). Beta-napthoflavone dose-response curves were constructed for the LexA-AHR in the presence and absence of ARA9 (FIG. 5).
ARA3 was a candidate for a novel regulator of AHR signaling because of its ligand-dependent association with AHR in the two-hybrid screen. The influence of ARA3 on AHR signaling was investigated to determine modifier status. To accomplish this, an ARA3 cDNA (lacking the heterologous TAD from the two-hybrid clone, TAD-NΔ113ARA3) was expressed with LexA-NΔ166AHR in the L40 strain of yeast with increasing concentrations of β-NF.

Clc1cc2c(cc1Cl)Oc1cc(Cl)c(Cl)cc1O2 [TCDD, 2,3,7,8-tetrachlorodibenzo-p-dioxin]
increase of response of the system on overexpression of ARA9 (AHR): 2-3 fold

C[C@]12CC[C@H]3[C@@H](CCC4=CC(=O)CC[C@@]43C)[C@@H]1CC[C@@H]2C(=O)CO [deoxycorticosterone]
alteration of signaling profile of GR by ARA3 (GR-LexA chimera; co-expression of ARA3 with NlxC-GR): did not alter the signaling profile | alteration of response of GR-LexA chimera by ARA9 or FKBP52 (GR-LexA chimera; co-expression of ARA9 or FKBP52): nor could either factor alter the response

O=c1cc(-c2ccccc2)oc2ccc3ccccc3c12 [βNF, Beta-napthoflavone]
increase of maximal response of AHR by ARA3 (LexA-AHR chimera; co-expression of ARA3 (NΔ113ARA3) with LexA-NΔ166AHR): four-fold | increase of maximal response in the presence of ARA9 (LexA-AHR chimera; co-expression of ARA9 versus absence): approximately 2.5 fold | decrease of EC50 when ARA9 was present (LexA-AHR chimera; co-expression of ARA9 versus absence, β-galactosidase, ONPG assay): approximately 5 fold | shift in AHR dose-response elicited by FKBP52 (LexA-AHR chimera; co-expression of FKBP52): could not be elicited | shift of dose-response curve by ARA3 (LexA-AHR chimera; co-expression of NΔ113ARA3 with LexA-NΔ166AHR): shifted the curve to the left
